Measured values: the METLIN SMRT retention time set (Domingo-Almenara et al. 2019)

Assay: gradient 5% acetonitrile 3 min, to 50% in 2 min, to 85% in 15 min, held 3 min, 100 µL/min
Conditions: column: Zorbax Extend-C18 2.1 x 50 mm; eluents: water / acetonitrile, 0.1% formic acid
Method in brief: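 Retention times of pure standards were taken from adduct peaks that were selected by computer and manually inspected. Over 3 months, mixtures of ~100 molecules were run by HPLC–quadrupole time-of-flight mass spectrometry in positive and negative ionization mode. The Zorbax Extend-C18 column (2.1 × 50 mm, 1.8 μm) ran at 100 μL/min in water and acetonitrile, each containing 0.1% formic acid, with 40 μL dead volume and 900 μL dwell volume.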

SMILES	RP-LC retention time
O=C(O)c1ccc(Nc2c(-c3ccc(Cl)cc3)nc3cnccn23)cc1	737 s
CCc1cc(=O)n(Cc2cccc(F)c2)c(N2CCOCC2)n1	909 s
Cc1ccc(-c2nnc(-c3ccccc3Cl)o2)cc1S(=O)(=O)N1CCCCC1	1200 s
CC(C)NC(=O)c1nn(-c2ccccc2F)nc1CO	768 s
COc1ccccc1N1CCN(C(=O)C2CCN(C(=O)C3Sc4ccccc4NC3=O)CC2)CC1 (centres undefined)	717 s
CC1=C(c2ccccc2)S(=O)(=O)N=C1N1CCCN(C(=O)c2ccccc2)CC1	697 s
O=C(Cn1nc2c(N3CCOCC3)nccn2c1=O)Nc1cc(C(F)(F)F)ccc1Cl	827 s
COC(=O)c1c(C)[nH]c(C(=O)N2CCC(CC(=O)NCc3ccc(C)cc3)CC2)c1C	762 s
CC1CCN(C(=O)C2CCN(c3cncnc3N3CCN(C)CC3)CC2)CC1	558 s
O=C(Cn1cccc1-c1nc(-c2ccc(Cl)cc2)cs1)NCCN1CCOCC1	711 s
CNC(=O)[C@@H]1CN(C(=O)c2cccc(Br)c2)C[C@H]1CO	586 s
COc1cc(OC)cc(C(=O)N2CCN(c3nnc4c(Cl)cccn34)CC2)c1	603 s
Cc1cc(C(=O)Nc2nc(-c3ccccc3)cs2)ccc1[N+](=O)[O-]	1080 s
Cc1[nH]c(C)c(S(=O)(=O)N2CCC(C(=O)NC(C)(C)C)CC2)c1C(=O)N1CCCCC1	710 s
Cn1nc(-c2nc(Cc3ccccc3)no2)c2c1CCN(C(=O)NC1CCCC1)C2	867 s
CC(C)(CO)NC(=O)Cc1ccc(NC(=O)c2ccc(Cl)s2)cc1	704 s
O=C(C1CCCC1)N1CCN(c2cc(-c3ccc(Cl)cc3)[nH]n2)CC1	877 s
Cn1nc(N2CCC(NC(=O)c3nccc4ccccc34)C2)ccc1=O (centres undefined)	695 s
Cc1noc(C)c1CC(=O)N1CCC(Cc2noc(C3CC3)n2)C1 (centres undefined)	748 s
O=C(Nc1ccc(OCc2nnc(-c3ccccc3)o2)cc1)c1ccnc(Cl)c1	908 s
Cn1cc(S(=O)(=O)N2CCC(C(=O)N3CCc4ccccc4C3)CC2)cc1C(=O)N1CCCC1	782 s
O=C(NCc1ccccc1)C1CCN(c2cnc3nccnc3c2)CC1	662 s
COc1cc(-c2nc3nc4ccccc4nc3n2CC2CCCO2)cc(OC)c1OC (centres undefined)	795 s

SMILES	RP-LC retention time
CCOc1cc(=O)n2c(c1C(=O)Nc1cc(OC)cc(OC)c1)CCCC2	718 s
Cc1ncc2c(n1)CCN(C(=O)c1ccc(Cl)cc1)C2	627 s
Cc1ccc(-c2cc3c(=O)n(Cc4noc(CN5CCCC(C)C5)n4)ccn3n2)cc1 (centres undefined)	705 s
O=c1ccc(-c2nc(-c3ccncc3)no2)cn1Cc1noc(C2CCCC2)n1	719 s
CCOC(=O)c1ccc(Oc2ncnc(N)c2[N+](=O)[O-])cc1	769 s
O=S(=O)(c1ccc2c(c1)CCCC2)N1CCCC1c1nc(-c2cccc(Cl)c2)no1 (centres undefined)	1410 s
Cc1cnc(CC2CCN(S(=O)(=O)c3cccc(F)c3)C2)n1C(C)C (centres undefined)	671 s
COC(=O)c1c2c(nc3ccccc13)CCN(C(=O)Nc1ccccc1OC)C2	820 s
O=S(=O)(NCc1nc(-c2ccc(-c3csc(C4CC4)n3)cc2)no1)c1ccc(F)cc1	1080 s
O=C(Cc1cccc(Cl)c1)Nc1ccsc1-c1nnc(C2CC2)o1	1240 s
Cc1c(Cl)cccc1N1C(=O)CN(S(C)(=O)=O)CC1(C)C(=O)NCc1ccccc1 (centres undefined)	850 s
O=c1cccnn1CCCNS(=O)(=O)c1ccc2c(c1)OCCO2	645 s
CCOc1ccc(-c2ccc(=O)n(CCc3nc(-c4ccc(SC)cc4)no3)n2)cc1	1030 s
CSc1cccc(-n2ccc(=O)c(-c3nc(-c4ccccc4)no3)n2)c1	971 s
COc1ccc(NS(=O)(=O)c2ccc3c(c2)C(=O)N(C)c2ncccc2O3)cc1F	891 s
O=C(NC1CCN(c2cc(-c3ccc(F)cc3)[nH]n2)C1)c1ccncc1 (centres undefined)	611 s
O=C1NCCCCCCN(C(=O)Nc2ccc3c(c2)OCCO3)[C@H]2CCCC[C@@H]12	808 s
O=C(COc1ccc(F)cc1)NCC1CCOCC1	677 s
CCCN1C(=O)c2ccccc2Sc2cc(-c3noc(CNC(=O)c4ccco4)n3)ccc21	911 s
CCCn1c(CCNC(=O)c2ccc(C)c(C)c2)nc2cccnc21	705 s
CN(c1cccc(Cl)c1)S(=O)(=O)c1cc2n(c1)CCCNC2=O	726 s
CCCCOC(=O)c1ccc(Nc2nc(C(=O)OCC)nc3ccccc23)cc1	1070 s
Cc1nc(C)c(C(=O)N(C)C2CCc3nn(CC4CC4)c(=O)n3CC2)s1 (centres undefined)	626 s

SMILES	RP-LC retention time
CN1C(=O)c2ccccc2C(C(=O)N2CCN(c3ccccn3)CC2)C1c1cccs1 (centres undefined)	608 s
Cc1c(C(=O)NC(C)C)cnn1-c1cc(-c2nc(C(C)C)no2)ccn1	868 s
Cc1cc(C(=O)N2CCCCC2)c2c(=O)n(CC(=O)NCCC(C)C)c(=O)n(C)c2n1	790 s
CCCN(C(=O)Nc1ccc(CC)cc1)c1nc(-c2ccc(Br)cc2)cs1	660 s
O=C(O)c1ccc(-c2nnc3ccc(NC(=O)C4CCC4)cn23)cc1	683 s
Cc1ccc(C(=O)Nc2cccc(C(F)(F)F)c2)cc1Nc1nc(-c2cccnc2)nc2c1cnn2C	788 s
Cn1ccc2cc(S(=O)(=O)N3CCCC(C(=O)NCCCN4CCOCC4)C3)ccc21 (centres undefined)	627 s
Cc1nc(-c2ccc(N3CCN(C(=O)c4nn(C)c5ccccc45)CC3)nc2)sc1C	966 s
O=C(O)c1ccc(N2CCCC(CN3CCCC3)C2)c(NS(=O)(=O)c2cccc(F)c2)c1 (centres undefined)	648 s
CCN1c2cc(C(=O)NCc3ccc(SC)cc3)ccc2C(=O)N2CCCCC21 (centres undefined)	856 s
CCCCN1C(=O)C(C)(C(=O)Nc2ccc(C)cc2)Oc2cccnc21 (centres undefined)	1060 s
Cc1cc(-c2nn3c(COc4ccc(Cl)cc4)nnc3s2)no1	948 s
CCc1ccccc1NC(=O)Cn1nc(N2CCCC(C)C2)c2ccccc2c1=O (centres undefined)	1180 s
C[C@H]1CN(C(=O)Nc2ccc3c(c2)CCC3)C[C@@H]1c1nc(-c2ccncc2)no1	888 s
CC(C)(C)c1ccc(-c2nc(C3CC(=O)N(c4ccc(Cl)cc4)C3)no2)cc1 (centres undefined)	861 s
Cc1nnc2c(NC(=O)c3ccc(Cl)s3)cccn12	729 s
Cc1cc(OCC(=O)Nc2cccc(Cl)c2)nc(N2CCN(c3ccccc3)CC2)n1	904 s
Cc1ccc(NC(=O)Cn2c(=O)n(-c3ccccc3)c(=O)c3c2cc(C)n3C)c(Cl)c1	927 s
COc1ccc(N2CCN(c3nc(C(=O)N4CCCC4)cs3)CC2)cc1	853 s
Cc1cnc2cc(Cl)ccc2c1SCC(=O)O	816 s
O=C(NCCN1CCN(c2ccc(Cl)cc2)CC1)C(=O)Nc1cc(F)ccc1F	613 s
Cn1cnc(S(=O)(=O)N2CCC(C(=O)NCCc3ccccc3)CC2)c1	663 s
Cc1noc(COC2CCN(C(=O)c3ccc4c(c3)OCO4)CC2)n1	702 s

SMILES	RP-LC retention time
COc1nc2ccccc2nc1N1CCCC(C(=O)Nc2ccccc2F)C1 (centres undefined)	1140 s
Oc1cc2c(c(Cl)c1O)CCNCC2c1ccccc1 (centres undefined)	618 s
CC(=O)Nc1ccc(-c2noc(C3CCN(C(=O)C4CC4)CC3)n2)cc1	689 s
CCC(=O)NCC[C@@H]1CCc2ccc3c(c21)CCO3	833 s
Cc1ccc(NC(=O)Cn2c(=O)n(-c3ccccc3)c(=O)c3c2cc(C)n3C)cc1F	868 s
COc1ccc(S(=O)(=O)N2CCC(n3c(-c4ccoc4)nc4cccnc43)C2)cc1 (centres undefined)	831 s
CCOc1ccccc1-c1noc(Cn2c(=O)n(-c3ccc(Cl)cc3)c(=O)c3sccc32)n1	1030 s
Cc1cc(N(C)C)nc(NCCNC(=O)C(C)(C)Oc2ccc(Cl)cc2)n1	598 s
CN(CCCNC(=O)c1ccc2c(c1)NC(=O)C1CCCCN21)C1CCCCC1 (centres undefined)	623 s
Cc1ccccc1OCC(=O)N1CCCC1c1nc(-c2cccc(Cl)c2)no1 (centres undefined)	1150 s
Cc1ccc(F)cc1NC(=O)c1csc(-c2cn(C)c3ncccc23)n1	1130 s
Cc1cc(NS(=O)(=O)c2cn(CC(C)C)c3ncccc23)ccc1F	989 s
CN(CCNC(=O)CCCn1c2ccccc2c2cnn(C)c(=O)c21)Cc1ccccc1	652 s
CCn1cc(CN2CCC(N3C(=O)C4(CCCCC4)C3c3ccncc3)CC2)c(C)n1 (centres undefined)	532 s
CCOC(=O)C1CCN(C(c2ccc(C)cc2)c2c(O)cc(C)n(CC)c2=O)CC1 (centres undefined)	725 s
CCc1ccccc1NC(=O)c1sc(C)nc1C	778 s
CCC(C)Sc1nnc(NC(=O)C2CCN(C(=O)c3cccc(F)c3)CC2)s1 (centres undefined)	877 s
Cc1cncn(CC(=O)Nc2ccccc2Cl)c1=O	608 s
O=C(c1ccc2nsnc2c1)N(Cc1ccsc1)Cc1ccco1	898 s
Cc1ccccc1Nc1c(-c2cccc(Cl)c2)nc2ccc(Cl)cn12	1080 s
